Results on 19 compounds are retold here after ChEMBL document CHEMBL1149235, “Tetrahydronaphthalene-derived amino alcohols and amino ketones as potent and selective inhibitors of the delayed rectifier potassium current IKs” (Bioorg Med Chem Lett, 2004).

Assay [1] is described as follows: Inhibitory activity against slow component of delayed rectifier potassium current IKs in guinea pig ventricular myocytes. The class given is cell-based, Cavia porcellus, Ventricular myocyte.
A short description of assay [2]: Inhibition of rapid component of delayed rectifier potassium current IKr in guinea pig ventricular myocytes. It counts as cell-based, Cavia porcellus, Ventricular myocyte.
Where [3] appears, read: Cavia porcellus, Ventricular myocyte.

A word on the IC50: it is the concentration that inhibits the measured activity by half. Lower therefore signals inhibition by little substance.

Structures are written as SMILES. Where only a bound is given, the exact number is not on record here.

With `O=C1c2ccc(Oc3ccccc3)cc2CCC1CCN1CCC(c2ccccc2)CC1` (stereo unspecified), the IC50 in assay [1] (setting [3]) is 1500 nM. On to `O=C1c2ccc(OCc3ccccc3-c3ccccc3)cc2CCC1CCN1CCC(c2ccccc2)CC1` (stereo in doubt; 10d), for which the IC50 was found to be 30 nM in assay [1] (ventricular myocyte) and 260 nM in assay [2] (ventricular myocyte). Turning to `O=C1c2ccc(OCc3ccccc3)cc2CCC1CC(=O)N1CCC(c2ccccc2)CC1` (stereo unspecified), the IC50 in assay [1] (setting [3]) is greater than 30000 nM. Same read-out and setting: for `O=C1c2ccc(OCc3cccc(-c4ccccc4)c3)cc2CCC1CCN1CCC(c2ccccc2)CC1` (stereo unspecified) the value was 470 nM. On to `O[C@@H]1c2ccc(OCc3ccccc3-c3ccccc3)cc2CC[C@H]1CCN1CCC(c2ccccc2)CC1` (stereo in doubt), for which 1000 nM corresponded to half-maximal inhibition in assay [1] (ventricular myocyte) (IC50). As for `O=C1c2ccc(OCc3ccccc3-c3ccccc3)cc2CCC1CCN1CCC(c2ccccc2)CC1` (single isomer, unassigned), the IC50 in assay [1] (ventricular myocyte) was 340 nM; in assay [2] (ventricular myocyte), 1600 nM. The compound `O=C1c2ccc(OCc3ccc(-c4ccccc4)cc3)cc2CCC1CCN1CCC(c2ccccc2)CC1` (stereo unspecified) registered an IC50 in assay [1] (setting [3]) of 1000 nM. Same read-out and setting: for `O=C1c2ccc(OCc3cccnc3)cc2CCC1CCN1CCC(c2ccccc2)CC1` (stereo unspecified) the value was 380 nM; for `O=C1c2ccc(OCc3ccccn3)cc2CCC1CCN1CCC(c2ccccc2)CC1` (stereo unspecified), 1300 nM. On the same count and under the same terms, the same measure for `O=C1c2ccc(-c3ccccc3)cc2CCC1CCN1CCC(c2ccccc2)CC1` (stereo unspecified): 2400 nM. Consider `O[C@@H]1c2ccc(OCc3ccccc3-c3ccccc3)cc2CC[C@H]1CCN1CCC(c2ccccc2)CC1` (stereo in doubt; 14a), for which the IC50 in assay [1] (ventricular myocyte) turned out to be 37 nM.

Take `O=C1c2ccc(OCc3ccncc3)cc2CCC1CCN1CCC(c2ccccc2)CC1` (stereo unspecified): 200 nM corresponded to half-maximal inhibition in assay [1] (setting [3]) (IC50).

In the case of `COc1ccc2c(c1)CCC(CCN1CCC(c3ccccc3)CC1)C2=O` (stereo in doubt; 8a), the half-inhibitory concentration (IC50) came out at 400 nM in assay [1] (ventricular myocyte) and 1700 nM in assay [2] (setting [3]). `COc1ccc2c(c1)CCC(CN1CCC(c3ccccc3)CC1)C2=O` (stereo unspecified): the values for the IC50 in assay [1] (setting [3]) and in assay [2] (setting [3]) were 5000 nM and 4000 nM, respectively. Take `COc1ccc2c(c1)CCC(CCN1CCC(c3ccccc3)CC1)C2=O` (single isomer, unassigned): the IC50 in assay [1] (ventricular myocyte) came to 1700 nM. Regarding `O=C1c2ccc(OCc3ccccc3)cc2CCC1CCN1CCC(c2ccccc2)CC1` (stereo in doubt; 8b), the IC50 turned out to be 69 nM in assay [1] (ventricular myocyte) and 160 nM in assay [2] (ventricular myocyte). `O[C@H]1c2ccc(OCc3ccccc3-c3ccccc3)cc2CC[C@H]1CCN1CCC(c2ccccc2)CC1` registered an IC50 in assay [1] (setting [3]) of 390 nM. On to `OC1c2ccc(OCc3ccccc3)cc2CCC1CCN1CCC(c2ccccc2)CC1` (single isomer, unassigned), for which the IC50 came to 1300 nM in assay [1] (ventricular myocyte) and 110 nM in assay [2] (ventricular myocyte). With `OC1c2ccc(OCc3ccccc3)cc2CCC1CCN1CCC(c2ccccc2)CC1` (stereo in doubt; 7b), the IC50 in assay [1] (ventricular myocyte) is 150 nM; in assay [2] (setting [3]), 170 nM.
